Data on six compounds can be found in patent US6620853B1, “Methods and compositions for prevention and treatment of restenosis with non-steroidal anti-inflammatory drugs” (Mount Sinai School of Medicine, priority 1998, dated 2003).

Each structure is given as a SMILES string.

The subject of one assay is ApoE-deficient mice. The experiment in a line: Atherosclerotic lesions and plasma cholesterol in ApoE-deficient mice on western diet. Format: in vivo, mouse. As to conditions: ApoE-deficient mice maintained on a western diet. From the text:
The Apo-E deficient mouse is the first mouse model of atherosclerosis with pathology similar to that of human atherosclerosis (Cell 1992, 71:343-353). Serum cholesterol levels in the mice maintained on a chow diet are five times higher than those of control littermates. Apo-E, which is made primarily in the liver, is a surface constituent of lipoprotein particles and a ligand for lipoprotein recognition and clearance by lipoprotein receptors (Science 1996, 272:685-688). ApoE-deficient mice have delayed clearance of lipoproteins, and on a low-cholesterol, low-fat diet, their cholesterol levels reach 400 to 600 mg/dl as a result of accumulation of chylomicron and very low-density lipoprotein (VLDL) remnants enriched in esterified and free cholesterol (Circulation 1993, 88:A9). These mice develop not only fatty streaks but also widespread fibrous plaque lesions at vascular sites typically affected in human atherosclerosis (Arterioscier. Thromb. 1994, 14;1873). Lesions form at the base of the aorta and the lesser curvature of the thoracic aorta, at the branch points of the carotid, intercostal, mesenteric, renal and iliac arteries, and in the proximal coronary, carotid, femoral, subclavian, and brachiocephalic arteries. Lesions begin at 5 to 6 weeks of age with monocyte attachment to the endothelium in lesion-prone areas and transendothelial migration. Fatty streak lesions begin to appear at 10 weeks, and intermediate lesions containing foam cells and spindle-shaped smooth muscle cells appear at 15 weeks. Fibrous plaques appear after 20 weeks and consist of a necrotic core covered by a fibrous cap of smooth muscle cells surrounded by elastic fibers and collagen. In older mice, fibrous plaques progress. In some advanced lesions there is partial destruction of underlying medial cells with occasional aneurysm formation, and in others calcification occurs in the fibrous tissue. Extensive fibro-proliferation can narrow the lumen, even to the point of occlusion of vessels.
Atherosclerosis can be exacerbated by a high-cholesterol or high-fat diet. This effect is mimicked in the ApoE-deficient mice when these mice are fed a western-type diet as described below in Section 6.
The Apolipoprotein E knock-out mouse model is a valuable animal model to test the effect of NSAIDs on apoptosis, proliferation, quiescence, migration and differentiation of cells that contribute to atherosclerosis. ApoE is an apoprotein on the surface of atherogenic lipoproteins that serves as a ligand for certain receptors in key tissues. ApoE-induced signaling via these receptors, particularly by the hepatic LDL receptor, induces the removal of ApoE-containing lipoprotein particles from the plasma. […]

The subject of assay [1] is HT-29 human colon adenocarcinoma cells. As to conditions: cited from earlier work.
Assay [2] has as its system HCT-15 cultured colon cancer cell line. As to conditions: Biochem. Pharmacol. 1996, 52:237-245; cited from earlier work.
A further assay relates to ApoE-knockout mice. Format: in vivo, mouse. The conditions noted are these: Western Diet with Sulindac (300 mg/kg) for 17 weeks, examined four weeks after injury; vs control group. The text has this:
We have developed a new mouse model of studying restenosis, in which the injury of the femoral artery is accomplished by the manipulation of wire stent which is introduced into the femoral artery first and then removed.
Briefly, the mouse is anesthetized with pentobarbital and the femoral artery is exposed by cutting the skin in the femoral region carefully. An angioplastz guide wire obtained from Advanced Cardiovascular Systems, Tameaila, Calif. of approximately 100 mm in length and 0.25 mm in diameter is then carefully inserted into the femoral artery, gently manipulated to simulate the arterial revascularization procedures used in humans, and removed. The bleeding is stopped by ligation. The skin fold is restored by sutures.
By one month after injury maximum restenosis is measured is achieved. The degree of restenosis is measured by two indices, the intima/media (I/M) ratio and the percentage of lumenal narrowing. […]
Thirty six week old ApoE-knockout mice were used and given the following dietary regimen and treatment: Group 1-western type diet (containing 42% by calories % fat and 0.15% (w/w) cholesterol); Group 2-western type diet plus aspirin at a concentration of 300 mg/kg diet/day and Group 3-western type diet plus Sulindac at a concentration of 300 mg/kg diet/day. […] The body weight was monitored on a weekly basis. […]

For another assay, the system named is cyclooxygenase. As to conditions: Adv. Drug Res. 1977, 12:90-245; cited from earlier work.

Take `CC1=C(CC(=O)O)c2cc(F)ccc2/C1=C\c1ccc([S+](C)[O-])cc1` (stereo not drawn) [Sulindac]: in the assay on ApoE-deficient mice, the “development of atherosclerotic lesion / atherosclerotic index” value was “significantly inhibited” and the “level of cholesterol in the plasma” value was “reduced the level of cholesterol in the plasma”. For the same compound, in assay [1], the “morphology of HT-29 cells” value was “altered morphology” and the “proliferation of HT-29 cells” value is recorded as “reduced proliferation”. Also, in assay [2], the antiproliferative effect result is given as “antiproliferative effect independent of prostaglandin synthesis”. In the assay with ApoE-knockout mice, the “arterial narrowing after mechanical arterial injury” value is recorded as “narrowing of the artery was not as marked” and the “smooth muscle cell proliferation after mechanical arterial injury” value is “much less proliferation of smooth muscle cells”.
As to `CC(=O)Oc1ccccc1C(=O)O` [aspirin], in the assay with ApoE-deficient mice, the “development of atherosclerotic lesion / atherosclerotic index” value was “inhibited the atherosclerotic index but to a lesser extent than observed in the group treated with Sulindac” and the “level of cholesterol in the plasma” value is on record as “reduced the level of cholesterol in the plasma”. Moreover, in assay [1], the “morphology of HT-29 cells” value is “altered morphology” and the “proliferation of HT-29 cells” value is “reduced proliferation”.
As to `COc1ccc2c(c1)c(CC(=O)O)c(C)n2C(=O)c1ccc(Cl)cc1` [indomethacin], in assay [1], the “morphology of HT-29 cells” value is reported as “altered morphology” and the “proliferation of HT-29 cells” value is listed as “reduced proliferation”.
Turning to `CN1C(C(=O)Nc2ccccn2)=C(O)c2ccccc2S1(=O)=O` [piroxicam], in assay [1], the “morphology of HT-29 cells” value was “altered morphology” and the “proliferation of HT-29 cells” value is given as “reduced proliferation”. Moreover, the antiproliferative effect result in assay [2] is “antiproliferative effect independent of prostaglandin synthesis”.
For the compound `CSc1ccc(/C=C2/C(C)=C(CC(=O)O)c3cc(F)ccc32)cc1` [sulfide, Sulindac sulfide], the inhibition of cyclooxygenase result in the assay on cyclooxygenase is reported as “potent inhibitory agent of cyclooxygenase”.
As to `CC1=C(CC(=O)O)c2cc(F)ccc2/C1=C\c1ccc(S(C)(=O)=O)cc1` [sulfone, Sulindac sulfone], in the assay on cyclooxygenase, the inhibition of cyclooxygenase result is given as “does not inhibit cyclooxygenase”.
